Measurements taken from patent US6905852B1, “Herbicide-resistant protoporphyrinogen oxidase isolated from Nicotiana tabacum” (Nihon Nohyaku Co., Ltd., priority 1997, dated 2005).
Read-outs that look alike come from different tables or passages of the source.

How the values were obtained:
sensitive cell line = assay: Accumulation of protoporphyrin IX in callus; assay type: cell-based, Nicotiana tabacum; settings: 1,200 nM compound H
tobacco callus [1] = assay: Selection course of callus lines tolerant to the photobleaching herbicide; assay type: cell-based, Nicotiana tabacum
Experimental: Using a medium containing the compound H containing two times concentration (20 nM) of the concentration at which tobacco callus completely dies, the selection of tobacco callus tolerant to photobleaching herbicide has been started. 1×10^5 of tobacco callus have been selected (Table 2), in the course of re-generation from 1×10^10 of the protoplast.
number of protoplast given: 1×10^10

tobacco callus [2] = assay: Sensitivity of tobacco callus to compound H (survival); assay type: cell-based, Nicotiana tabacum
Experimental: Tobacco (Nicotiana tabacum CV. Xanthi NC) was grown to 40 cm tall in a green house. And a leaf was cut, and the leaf was cut to square-shape of 5 cm width by a knife, then immersed in 70% ethanol for 30 seconds and in an aqueous solution of sodium hypochlorite (the effective concentration of chlorine was 1%) for 15 minutes to conduct surface-sterilization. After washing it for three times by sterilized water and removal of epidermis, the leaf fragment was suspended in 0.6M manitol (pH 5.8) containing an enzyme solution (1% cellulase onozuka R-10 and 0.05% macerozyme R-10 (manufactured by Yakult Co., Ltd.)) at 26° C. for three hours. After the enzyme treatment, protoplasts were washed with centrifugation by Murasige-Skoog (MS) medium for three times, and the obtained protoplast was suspended into MS solid medium containing 0.6% agar and 1 ppm of NAA and BA, to make a cell number of 10^8/ml, and pored into a dish at 1 cm thick. The protoplast was cultured at 27° C. under darkness to regenerate a callus. Four weeks after the incubation, the agar medium containing a callus grown up to about 1 mm large, was cut to rectangular shape having 1 cm width, and put on MS solid medium containing various concentration of the compound H (4-chloro-3-[2,4-dichloro-5(2-propenyloxy)phenyl]-5-difluoromethoxy-1-methyl-1H-pyrazole, described in Toku Kai Hei 3-163063), and the sensitivity of tobacco callus to photobleaching herbicide was examined. As shoen in Table 1, it become apparent that the callus completely dies at 10 nM.

ETR-056 line = assay: Accumulation of protoporphyrin IX in callus; assay type: cell-based, Nicotiana tabacum; settings: 1,200 nM compound H
Experimental: (§1) The present inventors have tried to analyze the resistant mechanism in the resistant strain tolerant to photobleaching herbicide. It has been reported that in a plant treated by photobleaching herbicide, protoporphyrin IX is accumulated, the present inventors tried to measure the accumulation of protoporphyrin IX periodically. A resistant callus which has been subcultured in MS liquid medium containing 1,200 nM of compound H under light condition was cultured for 24 hours in a dark condition, then transplanted into MS liquid medium containing 1,200 nM of compound H, and after 6, 12, 18, 24, 32 and 48 hours later, the callus was collected, and protoporphyrin IX was measured. The extraction and assay of the protoporphyrin 1× from the callus were conducted as follows (Matringe, M. et al. (1989) Biochem, J. 260:231-235.). That is, 500 mg (wet weight) of the callus was homogenized in a mortar, and extracted with 7.5 ml of acetone: 1N NH4OH (9:1). The extract was centrifuged at 3,000×g for 10 minutes, then the supernatant was collected. To the supernatant 2.5 ml of hexane was added and mixed sufficiently, then, the lower layer was recovered. Further, after washing with hexane two twice, the amount of protoporphyrin IX obtained in the lower layer was measured from the value of Ex 405 nm-Em 631.5 nm by a fluorescence spectrophotometer. All the extraction procedures were conducted under the safety light.

ETR-245 = assay: Accumulation of protoporphyrin IX in callus; assay type: cell-based, Nicotiana tabacum; settings: 1,200 nM compound H
Experimental: as §1

ETR-253 = assay: Accumulation of protoporphyrin IX in callus; assay type: cell-based, Nicotiana tabacum; settings: 1,200 nM compound H
Experimental: as §1

[3] = molecular target: T1, E. coli SASX38 strain having pCR-HC with tobacco wild type protoporphyrinogen oxidase cDNA (Nicotiana tabacum, UniProt O24163); assay: Growth inhibition of E. coli SASX38 (liquid culture with shaking); assay type: cell-based
T1 construct: expressed in transfected cells; host or cells: E. coli SASX38 (hemG-deficient) carrying pCR-HC
T1 sequence (O24163 51-548): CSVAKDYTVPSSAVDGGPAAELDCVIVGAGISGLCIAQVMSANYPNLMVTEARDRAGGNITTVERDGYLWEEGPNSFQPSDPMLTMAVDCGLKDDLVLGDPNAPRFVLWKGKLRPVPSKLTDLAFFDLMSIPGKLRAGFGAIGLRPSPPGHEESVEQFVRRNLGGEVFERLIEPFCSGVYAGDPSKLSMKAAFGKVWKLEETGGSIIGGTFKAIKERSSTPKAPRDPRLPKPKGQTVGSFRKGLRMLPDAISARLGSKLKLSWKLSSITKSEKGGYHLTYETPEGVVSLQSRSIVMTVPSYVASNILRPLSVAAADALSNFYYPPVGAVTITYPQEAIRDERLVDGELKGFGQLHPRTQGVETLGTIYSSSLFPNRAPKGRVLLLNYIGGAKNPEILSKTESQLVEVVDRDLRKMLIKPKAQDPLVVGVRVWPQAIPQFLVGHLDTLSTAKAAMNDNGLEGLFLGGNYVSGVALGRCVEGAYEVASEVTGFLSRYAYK
Experimental: (§2) The E. coli SASX38 strain containing either of the above-described two kinds of plasmid was cultured with shaking in LB liquid medium containing 50 μg/ml of ampicillin at 28° C. for overnight.

[4] = test system: E. coli SASX38 strain having pCR-RC with tobacco resistant type protoporphyrinogen oxidase gene; assay: as above; assay type: cell-based, Nicotiana tabacum; settings: for R/S b) Tobacco: Resistant type/Wild type; for Superiority c): b/a: tobacco R/S over Arabidopsis thaliana R/S
Experimental: as §2

[5] = molecular target: T2, E. coli SASX38 strain having pCR-RC with tobacco resistant type protoporphyrinogen oxidase gene (Nicotiana tabacum, UniProt O24163, A174P/A191P/A231V/T382S); assay: as above; assay type: cell-based
T2 construct: expressed in transfected cells; host or cells: E. coli SASX38 (hemG-deficient) carrying pCR-RC
T2 sequence (O24163 whole entry A174P/A191P/A231V/T382S): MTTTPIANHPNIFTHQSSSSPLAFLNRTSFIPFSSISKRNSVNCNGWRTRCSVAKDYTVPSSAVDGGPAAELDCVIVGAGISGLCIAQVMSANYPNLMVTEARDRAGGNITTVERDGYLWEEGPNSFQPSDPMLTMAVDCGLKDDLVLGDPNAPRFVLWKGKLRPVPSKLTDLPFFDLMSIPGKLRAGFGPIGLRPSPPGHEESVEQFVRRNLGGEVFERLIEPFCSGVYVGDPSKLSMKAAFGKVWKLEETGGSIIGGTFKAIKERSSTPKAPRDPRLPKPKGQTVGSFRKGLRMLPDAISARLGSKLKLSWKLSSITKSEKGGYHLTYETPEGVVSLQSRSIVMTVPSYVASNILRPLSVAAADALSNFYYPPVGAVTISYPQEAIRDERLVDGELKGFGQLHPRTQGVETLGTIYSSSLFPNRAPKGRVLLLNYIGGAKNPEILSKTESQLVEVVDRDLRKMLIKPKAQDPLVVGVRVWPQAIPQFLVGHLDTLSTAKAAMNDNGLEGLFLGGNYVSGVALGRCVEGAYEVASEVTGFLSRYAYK
Experimental: as §2

[6] = molecular target: T3, E. coli SASX38 strain having pBAtPX-RC with Arabidopsis thaliana resistant type protoporphyrinogen oxidase cDNA (Arabidopsis thaliana, UniProt P55826, A220V); assay: as above; assay type: cell-based; settings: for R/S a) Arabidopsis thaliana: Resistant type/Wild type
T3 construct: expressed in transfected cells; host or cells: E. coli SASX38 (hemG-deficient) carrying pBAtPX-RC (pBluescript SK(-))
T3 sequence (P55826 35-537 A220V): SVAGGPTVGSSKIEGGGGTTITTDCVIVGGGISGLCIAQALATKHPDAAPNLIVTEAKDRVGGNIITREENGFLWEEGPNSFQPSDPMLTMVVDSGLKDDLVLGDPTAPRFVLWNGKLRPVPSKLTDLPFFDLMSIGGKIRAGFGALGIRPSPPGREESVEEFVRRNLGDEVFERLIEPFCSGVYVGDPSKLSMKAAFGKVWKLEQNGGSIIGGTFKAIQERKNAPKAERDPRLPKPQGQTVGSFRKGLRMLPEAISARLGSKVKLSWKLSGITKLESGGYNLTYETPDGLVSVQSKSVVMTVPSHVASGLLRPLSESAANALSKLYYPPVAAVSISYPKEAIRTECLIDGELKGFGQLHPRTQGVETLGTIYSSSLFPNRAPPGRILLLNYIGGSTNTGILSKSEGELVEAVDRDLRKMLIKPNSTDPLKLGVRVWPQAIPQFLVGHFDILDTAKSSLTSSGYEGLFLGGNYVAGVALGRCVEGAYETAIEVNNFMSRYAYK
Experimental: as §2

[7] = molecular target: T4, E. coli SASX38 strain having pBAtPX-C with Arabidopsis thaliana wild type protoporphyrinogen oxidase gene (Arabidopsis thaliana, UniProt P55826); assay: as above; assay type: cell-based
T4 construct: expressed in transfected cells; host or cells: E. coli SASX38 (hemG-deficient) carrying pBAtPX-C (pBluescript SK(-))
T4 sequence (P55826 35-537): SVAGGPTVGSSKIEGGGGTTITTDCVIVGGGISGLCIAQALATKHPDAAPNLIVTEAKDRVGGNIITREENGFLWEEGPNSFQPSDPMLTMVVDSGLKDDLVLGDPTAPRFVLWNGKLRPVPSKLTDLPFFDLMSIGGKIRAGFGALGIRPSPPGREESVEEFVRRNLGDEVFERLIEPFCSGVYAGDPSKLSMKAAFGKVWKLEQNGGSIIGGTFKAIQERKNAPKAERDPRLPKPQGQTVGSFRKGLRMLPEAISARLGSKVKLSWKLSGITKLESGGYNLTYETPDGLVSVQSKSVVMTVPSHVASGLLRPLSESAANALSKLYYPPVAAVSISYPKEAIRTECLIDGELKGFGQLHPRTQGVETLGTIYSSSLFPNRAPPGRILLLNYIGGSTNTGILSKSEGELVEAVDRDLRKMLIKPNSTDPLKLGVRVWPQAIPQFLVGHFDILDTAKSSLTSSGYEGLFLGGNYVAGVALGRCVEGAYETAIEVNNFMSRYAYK
Experimental: as §2

Compound: C=CCOc1cc(-c2nn(C)c(OC(F)F)c2Cl)c(Cl)cc1Cl [compound H, 4-chloro-3-[2,4-dichloro-5(2-propenyloxy)phenyl]-5-difluoromethoxy-1-methyl-1H-pyrazole]
- amount of protoporphyrin IX (sensitive cell line; 24 hours): 1.3 μg/g fresh weight
- amount of protoporphyrin IX (sensitive cell line; 48 hours): 1.9 μg/g fresh weight
- Number of resistant cell lines (tobacco callus [1]; 20 nM, protoplast given 1×10^10): 100,000
- Number of resistant cell lines (tobacco callus [1]; 30 nM): 50,000
- Number of resistant cell lines (tobacco callus [1]; 50 nM): 40,000
- Number of resistant cell lines (tobacco callus [1]; 75 nM): 7,200
- Number of resistant cell lines (tobacco callus [1]; 150 nM): 254
- Number of resistant cell lines (tobacco callus [1]; 300 nM): 120
- Number of resistant cell lines (tobacco callus [1]; 600 nM): 66
- Number of resistant cell lines (tobacco callus [1]; 1200 nM): 46
- Number of resistant cell lines (tobacco callus [1]; 2,400 nM): 36
- Number of resistant cell lines (tobacco callus [1]; 5,000 nM): 0
- Survival Rate (%) (tobacco callus [2]; 2.5 nM): 30%
- Survival Rate (%) (tobacco callus [2]; 5 nM): 10%
- Survival Rate (%) (tobacco callus [2]; 8 nM (last line of the table)): 0%
- Survival Rate (%) (tobacco callus [2]; 10 nM): 0%
- Survival Rate (%) (tobacco callus [2]; 20 nM): 0%
- Survival Rate (%) (tobacco callus [2]; 40 nM): 0%
- concentration at which the callus completely dies (tobacco callus [2]; tobacco callus on MS solid medium): 10 nM
- amount of protoporphyrin IX (ETR-056 line; 24 hours): 1.7 μg/g fresh weight
- amount of protoporphyrin IX (ETR-056 line; 48 hours): 4.6 μg/g fresh weight
- accumulation of protoporphyrin IX (ETR-245): little accumulation
- accumulation of protoporphyrin IX (ETR-253): little accumulation

Compound: CCOC(=O)C(C)Nc1cc(-c2nn(C)c(OC(F)F)c2Cl)c(Cl)cc1Cl (centres unmarked) [Comp.B, ethyl 2-[5-(4-chloro-5-difluoromethoxy-1-methyl-1H-pyrazol-3-yl)-2,4-dichloro-phenylamino]propionate]
- IC50 [3]: 2.2 nM
- R/S b) Tobacco [4]: 9,100
- Superiority c) [4]: >10.6
- IC50 [5]: > 20 µM
- IC50 [6]: 18 µM
- R/S a) Arabidopsis thaliana [6]: 860
- IC50 [7]: 21 nM

Compound: CC(C)OC(=O)c1cc(-c2nn(C)c(C(F)(F)F)c2Br)c(F)cc1Cl [Comp.F, 1-methylethyl 5-[4-bromo-1-methyl-5-(trifluoromethyl)-1H-pyrazol-3-yl]-2-chloro-4-fluorobenzoate]
- IC50 ([3]; E. coli liquid culture method with shaking, read-out: I50 (nM) Tobacco Wild): 3.2 nM
- R/S b) Tobacco [4]: 4,700
- Superiority c) [4]: 16.8
- IC50 [5]: 15 µM
- IC50 [6]: 6.4 µM
- R/S a) Arabidopsis thaliana [6]: 280
- IC50 ([7]; E. coli liquid culture method with shaking, read-out: I50 (nM) Arabidopsis thaliana Wild): 23 nM

Compound: COc1cc(-c2nn(C)c(OC(F)F)c2Cl)c(F)cc1Cl [Comp.C, 4-chloro-3-(4-chloro-2-fluoro-5-methoxyphenyl)-5-difluoromethoxy-1-methyl-1H-pyrazole]
- IC50 [3]: 0.25 nM
- R/S b) Tobacco [4]: 8,800
- Superiority c) [4]: 14.7
- IC50 [5]: 2.2 µM
- IC50 [6]: 1.8 µM
- R/S a) Arabidopsis thaliana [6]: 600
- IC50 [7]: 3 nM

Compound: Cn1nc(-c2ccc(Cl)cc2F)c(Cl)c1OC(F)F [Comp.G, 4-chloro-3-(4-chloro-2-fluorophenyl)-5-difluorom ethoxy-1-methyl-1H-pyrazole]
- IC50 [3]: 3.1 nM
- R/S b) Tobacco [4]: 5,500
- Superiority c) [4]: 12.0
- IC50 [5]: 17 µM
- IC50 [6]: 8.7 µM
- R/S a) Arabidopsis thaliana [6]: 460
- IC50 [7]: 19 nM

Compound: C#CCOc1cc(-c2nn(C)c(OC(F)F)c2Cl)c(F)cc1Cl [Comp.D, 4-chloro-3-[4-chloro-2-fluoro-5-(2-propynyl)oxyphenyl]-5-difluoromethoxy-1-methyl-1H-pyrazole]
- IC50 [3]: 0.027 nM
- R/S b) Tobacco [4]: 25,000
- Superiority c) [4]: 12.5
- IC50 [5]: 0.67 µM
- IC50 [6]: 0.28 µM
- R/S a) Arabidopsis thaliana [6]: 2,000
- IC50 [7]: 0.14 nM

Compound: CCOC(=O)C(C)Oc1cc(-c2nn(C)c(OC(F)F)c2Cl)c(F)cc1Cl (centres unmarked) [Comp.E, ethyl 2-[2-chloro-5-(4-chloro-5-difluoromethoxy-1-methyl-1H-pyrazol-3-yl)-4-fluorophenoxy]propionate]
- IC50 [3]: 0.52 nM
- R/S b) Tobacco [4]: 12,000
- Superiority c) [4]: 12.6
- IC50 [5]: 6.3 µM
- IC50 [6]: 4 µM
- R/S a) Arabidopsis thaliana [6]: 950
- IC50 [7]: 4.2 nM
